From US6737383B1, “Herbicidal oxadiazolidines” (priority 1999, dated 2004)

How the values were obtained:
winter wheat [1] = assay: Test E winter wheat; type: in vivo, Triticum aestivum; details: Postemergence; for Plant response rating, Wheat (winter): 0 to 100 scale
How it was run: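 Visually scored herbicidal effect relative to untreated plants, taken ~21 to 28 days post-application; compound in solvent with surfactant; postemergence sprays at the 1- to 4-leaf stage.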

wild oat = assay: Test E wild oat; type: in vivo, Avena fatua; details: Preemergence; for Wild oat plant response rating (0 to 100 scale): Rate 250 g/ha
crabgrass = assay: Test B pre/postemergence crabgrass; type: in vivo, Digitaria sanguinalis; details: for Crabgrass plant response rating (0 to 10 scale): 0 is no effect
How it was run: (§1)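 Test chemicals in a non-phytotoxic solvent mixture with surfactant were sprayed preemergence onto planted seeds and postemergence onto plants 2 to 18 cm tall (1- to 4-leaf stage). After twelve to sixteen days in a greenhouse, injury was visually rated against untreated controls from 0 (no effect) to 10 (complete control).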

green foxtail = assay: Test E green foxtail; type: in vivo, Setaria viridis; details: Preemergence; for Green foxtail plant response rating (0 to 100 scale): Rate 250 g/ha
blackgrass [2] = assay: Test E blackgrass; type: in vivo, Alopecurus myosuroides; details: Preemergence; for Blackgrass plant response rating (0 to 100 scale): Rate 250 g/ha
bamyardgrass = assay: Test B flood test barnyardgrass; type: in vivo, Echinochloa crus-galli
How it was run: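 Plants were grown to the 2-leaf stage before treatment with test chemical, then held in a greenhouse for twelve to sixteen days. Injury was visually rated against untreated controls on a 0–10 scale, where 0 is no effect and 10 is complete control.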

winter barley = assay: Test E winter barley; type: in vivo, Hordeum vulgare; details: Preemergence; for Barley (winter) plant response rating (0 to 100 scale): Rate 250 g/ha
winter wheat [3] = assay: Test E winter wheat; type: in vivo, Triticum aestivum; details: Preemergence; for Wheat (winter) plant response rating (0 to 100 scale): Rate 250 g/ha
morningglory = assay: Test B pre/postemergence morningglory; type: in vivo, Ipomoea hederacea
How it was run: as §1

Italian ryegrass = assay: Test E Italian ryegrass; type: in vivo, Lolium multiflorum; details: Preemergence; for I. Ryegrass plant response rating (0 to 100 scale): Rate 250 g/ha
blackgrass [4] = assay: Test B pre/postemergence blackgrass; type: in vivo, Alopecurus myosuroides; details: for Blackgrass plant response rating (0 to 10 scale): 0 is no effect
How it was run: as §1

[5] = Rate 500 g/ha, 0 is no effect, 100 is complete control
[6] = Rate 500 g/ha, 0 to 100 scale where 0 is no effect and 100 is complete control
[7] = Rate 1000 g/ha, 0 to 100 scale where 0 is no effect and 100 is complete control
[8] = Postemergence, Rate 125 g/ha, scale of 0 to 10 where 0 is no effect and 10 is complete control
[9] = Preemergence, Rate 62 g/ha, scale of 0 to 10 where 0 is no effect and 10 is complete control
[10] = Preemergence, Rate 125 g/ha, 10 is complete control
[11] = Preemergence, Rate 250 g/ha, scale 0 to 10, 0 is no effect, 10 is complete control
[12] = Preemergence, Rate 500 g/ha, scale 0 to 10 (0 no effect, 10 complete control)
[13] = Rate 62 g/ha, Postemergence, scale of 0 to 10 where 0 is no effect and 10 is complete control
[14] = Rate 250 g/ha, Postemergence, scale 0 to 10, 0 is no effect, 10 is complete control
[15] = Rate 500 g/ha, Postemergence, scale 0 to 10
[16] = Rate 125 g/ha, 0 to 100 scale (0 no effect, 100 complete control)
[17] = Rate 125 g/ha, Postemergence, scale 0 to 10

Compound: CC(C)Cn1c(=O)on(C(=O)N(c2ccc(F)cc2)C(C)C)c1=O [Compound 169]
- Plant response rating, Wheat (winter) (winter wheat [1]; Rate 1000 g/ha, 0 is no effect and 100 is complete control): 65
- Wheat (winter) plant response rating (winter wheat [1]; Rate 250 g/ha, 0 to 100 scale where 0 is no effect and 100 is complete control): 40
- Plant response rating, Wheat (winter) (winter wheat [1]; [5]): 50
- Wild oat plant response rating (0 to 100 scale) (wild oat): 50
- Plant response rating, Wild oat (wild oat; [6]): 30
- Plant response rating, Wild oat (wild oat; [7]): 40
- Crabgrass plant response rating (crabgrass; [8]): 8
- Crabgrass plant response rating (crabgrass; [9]): 8
- Crabgrass plant response rating (0 to 10 scale) (crabgrass; [10]): 8
- Crabgrass plant response rating (crabgrass; [11]): 10
- Crabgrass plant response rating (crabgrass; [12]): 10
- Crabgrass plant response rating (crabgrass; [13]): 2
- Plant response rating, Crabgrass (crabgrass; [14]): 9
- Crabgrass plant response rating (crabgrass; [15]): 9
- Green foxtail plant response rating (0 to 100 scale) (green foxtail): 60
- Plant response rating, Green foxtail (green foxtail; [6]): 70
- Plant response rating, Green foxtail (green foxtail; [7]): 95
- Blackgrass plant response rating (0 to 100 scale) (blackgrass [2]): 30
- Plant response rating, Blackgrass (blackgrass [2]; [6]): 60
- Plant response rating, Blackgrass (blackgrass [2]; [7]): 55
- Barnyardgrass plant response rating (bamyardgrass; Postemergence (flood test species), Rate 125 g/ha, scale of 0 to 10 where 0 is no effect and 10 is complete control): 0
- Barnyardgrass plant response rating (bamyardgrass; Rate 62 g/ha, Postemergence section, flood test species, scale of 0 to 10 where 0 is no effect and 10 is complete control): 0
- Plant response rating, Barnyardgrass (bamyardgrass; Rate 250 g/ha, Postemergence (flood test), scale 0 to 10, 0 is no effect, 10 is complete control): 0
- Barnyardgrass plant response rating (bamyardgrass; Rate 500 g/ha, listed under Postemergence (flood test species), scale 0 to 10): 0
- Barley (winter) plant response rating (0 to 100 scale) (winter barley): 30
- Plant response rating, Barley (winter) (winter barley; [6]): 30
- Plant response rating, Barley (winter) (winter barley; [7]): 50
- Wheat (winter) plant response rating (0 to 100 scale) (winter wheat [3]): 10
- Plant response rating, Wheat (winter) (winter wheat [3]; [6]): 40
- Plant response rating, Wheat (winter) (winter wheat [3]; [7]): 65
- Morningglory plant response rating (morningglory; [8]): 1
- Morningglory plant response rating (morningglory; [9]): 0
- Morningglory plant response rating (0 to 10 scale) (morningglory; Preemergence, Rate 125 g/ha, 0 is no effect, 10 is complete control): 0
- Morningglory plant response rating (morningglory; [11]): 0
- Morningglory plant response rating (morningglory; [12]): 0
- Morningglory plant response rating (morningglory; [13]): 1
- Plant response rating, Morningglory (morningglory; [14]): 5
- Morningglory plant response rating (morningglory; [15]): 7
- I. Ryegrass plant response rating (0 to 100 scale) (Italian ryegrass): 75
- Plant response rating, I. Ryegrass (Italian ryegrass; [6]): 80
- Plant response rating, I. Ryegrass (Italian ryegrass; [7]): 90
- Blackgrass plant response rating (blackgrass [4]; [8]): 4
- Blackgrass plant response rating (blackgrass [4]; [9]): 3
- Blackgrass plant response rating (0 to 10 scale) (blackgrass [4]; [10]): 3
- Blackgrass plant response rating (blackgrass [4]; [11]): 8
- Blackgrass plant response rating (blackgrass [4]; [12]): 10
- Blackgrass plant response rating (blackgrass [4]; [13]): 2
- Plant response rating, Blackgrass (blackgrass [4]; [14]): 5
- Blackgrass plant response rating (blackgrass [4]; [15]): 9

Compound: Cc1nc(C)c(Cn2c(=O)on(C(=O)N(c3ccc(Cl)cc3)C(C)C)c2=O)s1 [Compound 191]
- Plant response rating, Wheat (winter) (winter wheat [1]; Rate 125 g/ha): 30
- Plant response rating, Wheat (winter) (winter wheat [1]; [5]): 60
- Plant response rating, Wild oat (wild oat; [16]): 30
- Wild oat plant response rating (0 to 100 scale) (wild oat): 40
- Plant response rating, Wild oat (wild oat; [6]): 50
- Crabgrass plant response rating (crabgrass; [9]): 0
- Crabgrass plant response rating (0 to 10 scale) (crabgrass; [10]): 3
- Crabgrass plant response rating (crabgrass; [11]): 8
- Crabgrass plant response rating (crabgrass; [12]): 8
- Crabgrass plant response rating (crabgrass; [13]): 2
- Crabgrass plant response rating (crabgrass; [17]): 2
- Plant response rating (0 to 10; 0 is no effect, 10 is complete control), Crabgrass (crabgrass; Rate 250 g/ha, Postemergence): 3
- Crabgrass plant response rating (crabgrass; [15]): 6
- Plant response rating, Green foxtail (green foxtail; [16]): 30
- Green foxtail plant response rating (0 to 100 scale) (green foxtail): 40
- Plant response rating, Green foxtail (green foxtail; [6]): 50
- Plant response rating, Blackgrass (blackgrass [2]; [16]): 10
- Blackgrass plant response rating (0 to 100 scale) (blackgrass [2]): 20
- Plant response rating, Blackgrass (blackgrass [2]; [6]): 30
- Barnyardgrass plant response rating (bamyardgrass; Rate 62 g/ha, headed Pre-emergence (flood test species), scale 0 to 10 (0 no effect, 10 complete control)): 0
- Barnyardgrass plant response rating (bamyardgrass; Rate 125 g/ha, Pre-emergence, flood test species, scale 0 to 10 where 0 is no effect and 10 is complete control): 0
- Barnyardgrass plant response rating (bamyardgrass; Rate 250 g/ha, Pre-emergence, flood-test species, scale 0 to 10, 0 is no effect, 10 is complete control): 0
- Plant response rating, Barnyardgrass (bamyardgrass; Rate 500 g/ha, headed Pre-emergence (flood test species), scale 0 to 10 (0 no effect, 10 complete control)): 0
- Plant response rating, Barley (winter) (winter barley; [16]): 10
- Barley (winter) plant response rating (0 to 100 scale) (winter barley): 30
- Plant response rating, Barley (winter) (winter barley; [6]): 20
- Plant response rating, Wheat (winter) (winter wheat [3]; [16]): 10
- Wheat (winter) plant response rating (0 to 100 scale) (winter wheat [3]): 30
- Plant response rating, Wheat (winter) (winter wheat [3]; [6]): 50
- Morningglory plant response rating (morningglory; [9]): 0
- Morningglory plant response rating (morningglory; [11]): 0
- Morningglory plant response rating (morningglory; [12]): 0
- Morningglory plant response rating (morningglory; [13]): 1
- Morningglory plant response rating (morningglory; [17]): 2
- Plant response rating (0 to 10; 0 is no effect, 10 is complete control), Morningglory (morningglory; Rate 250 g/ha, Postemergence): 2
- Morningglory plant response rating (morningglory; [15]): 8
- Plant response rating, I. Ryegrass (Italian ryegrass; [16]): 0
- I. Ryegrass plant response rating (0 to 100 scale) (Italian ryegrass): 0
- Plant response rating, I. Ryegrass (Italian ryegrass; [6]): 30
- Blackgrass plant response rating (blackgrass [4]; [9]): 0
- Blackgrass plant response rating (0 to 10 scale) (blackgrass [4]; [10]): 0
- Blackgrass plant response rating (blackgrass [4]; [11]): 4
- Blackgrass plant response rating (blackgrass [4]; [12]): 6
- Blackgrass plant response rating (blackgrass [4]; [13]): 0
- Blackgrass plant response rating (blackgrass [4]; [17]): 0
- Plant response rating (0 to 10; 0 is no effect, 10 is complete control), Blackgrass (blackgrass [4]; Rate 250 g/ha, Postemergence): 0
- Blackgrass plant response rating (blackgrass [4]; [15]): 3
